Results as given in US11827628B2, “Compositions and methods for inhibition of the JAK pathway” (Rigel Pharmaceuticals, Inc., priority 2005, dated 2023).

Test system: up-regulation of ICAM-1 (CD54) by IFNγ in U937 human monocytic cells
Experiment: U937 IFNγ ICAM1 FACS Assay
Assay type: cell-based
Details: U937 cells stimulated with IFNγ; ICAM-1 expression by FACS; read-out: IC50, Example 44
How it was run: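 Readout was the geometric-mean APC anti-ICAM-1 signal by FACS on live U937 monocytic cells, with % live cells also recorded. Cells were exposed to compounds (8 points, 3-fold dilutions, duplicates) for 30 min at 37 °C before 18–24 h of IFNγ stimulation. EC50 values were computed from the dose curve.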

| IC50 | SMILES |
| --- | --- |
| 257 nM | Cc1cnc(Nc2ccc(S(N)(=O)=O)cc2)nc1Nc1ccc(CCC#N)cc1 [III-27, N2-(4-Aminosulfonylphenyl)-N4-(4-cyanoethylenephenyl)-5-methyl-2,4-pyrimidinediamine] |
| 6720 nM | CCN(CC)CCNS(=O)(=O)c1ccc(Nc2ncc(F)c(Nc3ccc(CC#N)cc3)n2)cc1 [III-2, N2-[4-(2-N,N-Diethylaminoethyl)aminosulfonylphenyl)-5-fluoro-N4-(4-cyanomethylphenyl)-2,4-pyrimidinediamine] |
| 1090 nM | Cc1ccc(Nc2ncc(F)c(Nc3ccc(CC#N)cc3)n2)cc1S(N)(=O)=O [III-7, N2-(3-Aminosulfonyl-4-methyl)phenyl-N4-(4-cyanomethyl)phenyl-5-fluoro-2,4-pyrimidinediamine] |

More lines, now with the values behind:

| SMILES | IC50 |
| --- | --- |
| Cc1noc(COc2ccc(Nc3nc(Nc4cccc(S(=O)(=O)NCc5oc(=O)oc5C)c4)ncc3F)cc2)n1 [Compound I-257, N2-{3-[(N-5-Methyl-1,3-dioxolene-2-one-4-yl)methylene]aminosulfonylphenyl}-5-fluoro-N4-[4-(3-methyl-1,2,4-oxadiazol-5-yl)methyleneoxyphenyl]-2,4-pyrimidinediamine] | 959 nM |
| Cc1noc(CCc2ccc(Nc3nc(Nc4ccc(F)c(S(N)(=O)=O)c4)ncc3F)cc2)n1 [Compound I-267, N2-(3-Aminosulfonyl-4-fluorophenyl)-5-fluoro-N4-[4-(3-methyl-1,2,4-oxadiazol-5-yl)ethylenephenyl]-2,4-pyrimidinediamine] | 5070 nM |
| CCN(CC)CCNS(=O)(=O)c1ccc(Nc2ncc(F)c(Nc3ccc(OCc4cc(C)on4)cc3)n2)cc1 [Compound I-246, N2-[4-(2-N,N-Diethylaminoethyl)aminosulfonylphenyl)-5-fluoro-N4-[4-(5-methylisoxazol-3-yl)methyleneoxyphenyl]-2,4-pyrimidinediamine] | 873 nM |
| CNS(=O)(=O)c1cc(Nc2ncc(F)c(Nc3ccc(OCc4csc(C)n4)cc3)n2)ccc1C [Compound I-282, 5-Fluoro-N2-[3-(N-methylaminosulfony)-4-methylphenyl]-N4-[4-(2-methylthiazol-4-yl)methyleneoxyphenyl]-2,4-pyrimidinediamine] | 3100 nM |
| Cc1nc(COc2ccc(Nc3nc(Nc4ccc(S(N)(=O)=O)cc4)ncc3F)cc2)cs1 [Compound I-285, N2-(4-Aminosulfonylphenyl)-5-fluoro-N4-[4-(2-methylthiazol-4-yl)methyleneoxyphenyl]-2,4-pyrimidinediamine] | 1480 nM |
